# ChEMBL document CHEMBL3400145, “Design and synthesis of piperazine derivatives as a novel class of γ-secretase modulators that selectively lower Aβ₄₂ production” (Bioorg Med Chem, 2015)
# Active and inactive are the calls of the source. No cut-off for these calls is given here.
# Tests used:
# neuronal [1] = test: Inhibition of amyloid beta40 production in rat neuronal cells assessed as inflection point after 3 days by ELISA; type: cell-based
# neuronal [2] = test: Inhibition of amyloid beta40 production in rat neuronal cells assessed as maximal inhibition at 3 uM after 3 days by ELISA; type: cell-based
# [3] = Metabolic stability in rat hepatic microsomes by LC/MS/MS analysis; type: ADME, Liver, Microsome; conditions: read-out: CLH
# [4] = target: Amyloid-beta precursor protein (Homo sapiens) (UniProt P05067); test: Inhibition of amyloid beta40 production in human IMR32 cell by ELISA; type: functional, cell-based; conditions: IMR-32
# Amyloid-beta precursor protein (Homo sapiens), sequence (P05067 whole entry): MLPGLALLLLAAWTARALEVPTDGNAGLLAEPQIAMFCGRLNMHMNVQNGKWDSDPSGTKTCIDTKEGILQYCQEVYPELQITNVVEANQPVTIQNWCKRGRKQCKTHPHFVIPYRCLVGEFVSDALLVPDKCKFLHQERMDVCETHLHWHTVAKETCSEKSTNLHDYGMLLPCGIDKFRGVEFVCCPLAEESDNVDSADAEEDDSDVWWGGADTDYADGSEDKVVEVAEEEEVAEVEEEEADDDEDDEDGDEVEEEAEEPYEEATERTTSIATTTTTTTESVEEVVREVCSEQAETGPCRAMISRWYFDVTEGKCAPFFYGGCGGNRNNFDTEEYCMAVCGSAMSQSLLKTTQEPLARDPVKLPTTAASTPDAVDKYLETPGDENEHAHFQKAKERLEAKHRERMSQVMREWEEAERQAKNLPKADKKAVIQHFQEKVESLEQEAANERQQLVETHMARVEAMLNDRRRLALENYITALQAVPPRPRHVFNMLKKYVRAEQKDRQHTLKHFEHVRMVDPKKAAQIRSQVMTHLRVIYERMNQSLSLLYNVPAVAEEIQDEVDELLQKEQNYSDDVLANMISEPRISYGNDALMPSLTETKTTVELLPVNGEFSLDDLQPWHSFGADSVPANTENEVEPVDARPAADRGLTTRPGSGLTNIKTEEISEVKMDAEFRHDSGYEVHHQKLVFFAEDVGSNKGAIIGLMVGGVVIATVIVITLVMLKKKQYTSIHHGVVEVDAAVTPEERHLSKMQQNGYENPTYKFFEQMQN
# [5] = target: Amyloid-beta precursor protein (Homo sapiens) (UniProt P05067); test: Inhibition of amyloid beta42 production in human IMR32 cell by ELISA; type: functional, cell-based; conditions: IMR-32
# IMR-32 = test: Inhibition of total amyloid beta production in human IMR32 cell by ELISA; type: functional, cell-based
# [6] = Volume of distribution at steady state in C57BL/6J mouse at 0.1 mg/kg, iv cassette dosing; type: ADME, organism-based; design: dose 0.1 mg/kg, route intravenous; conditions: in vivo, read-out: Vdss
# [7] = Cmax in C57BL/6J mouse at 1 mg/kg, po cassette dosing; type: ADME, organism-based; design: dose 1 mg/kg, route oral; conditions: in vivo
# Mus musculus [8] = test: AUC in C57BL/6J mouse at 1 mg/kg, po cassette dosing; type: ADME, organism-based, Plasma; design: dose 1 mg/kg, route oral; conditions: in vivo
# [9] = Mean residence time in C57BL/6J mouse at 1 mg/kg, po cassette dosing; type: ADME, organism-based; design: dose 1 mg/kg, route oral; conditions: in vivo
# Mus musculus [10] = test: Oral bioavailability in C57BL/6J mouse at 1 mg/kg cassette dosing; type: ADME, organism-based; conditions: in vivo
# Brain [11] = test: Reduction in soluble amyloid beta42 in C57BL/6J mouse brain at 100 mg/kg, po after 3 hrs by ELISA relative to vehicle treated control; type: functional
# Brain [12] = test: Reduction in soluble amyloid beta40 in C57BL/6J mouse brain at 100 mg/kg, po after 3 hrs by ELISA relative to vehicle treated control; type: functional
# Plasma [13] = test: Reduction in soluble amyloid beta42 in C57BL/6J mouse plasma at 100 mg/kg, po after 3 hrs by ELISA relative to vehicle treated control; type: functional
# Plasma [14] = test: Reduction in soluble amyloid beta40 in C57BL/6J mouse plasma at 100 mg/kg, po after 3 hrs by ELISA relative to vehicle treated control; type: functional
structure (smiles),measurement,setting,value
COc1cc(N2CCN(C(=O)Cn3cnc4cc(C(F)(F)F)ccc43)CC2)ccc1-c1cnc(C)o1,Activity,neuronal [1],50 nM
same,inhibition,neuronal [2],61%
same,microsomal CLint,[3],66 µL/min/mg
COc1cc(N2CCN(C(=O)Cn3cnc4ccccc43)CC2)ccc1-c1cnc(C)o1,Activity,neuronal [1],93 nM
same,inhibition,neuronal [2],71%
same,microsomal CLint,[3],22 µL/min/mg
COc1cc(N2CCCN(C(=O)N[C@@H](C)c3cccc4ccccc34)CC2)ccc1-c1cnc(C)o1,Activity,neuronal [1],38 nM
same,inhibition,neuronal [2],57%
same,microsomal CLint,[3],240 µL/min/mg
COc1cc(N2CCN(C(=O)Cn3ncc4ccccc43)CC2)ccc1-c1cnc(C)o1,Activity,neuronal [1],170 nM
same,inhibition,neuronal [2],49%
same,microsomal CLint,[3],77 µL/min/mg
COc1cc(N2CCN(C(=O)N[C@@H](C)c3cccc4ccccc34)CC2)ccc1-n1cc(C)nn1,Activity,neuronal [1],450 nM
same,inhibition,neuronal [2],47%
same,microsomal CLint,[3],230 µL/min/mg
COc1cc(N2CCN(C(=O)Cn3nnc4ccccc43)CC2)ccc1-c1cnc(C)o1,Activity,neuronal [1],210 nM
same,inhibition,neuronal [2],47%
same,microsomal CLint,[3],27 µL/min/mg
COc1cc(N2CCN(C(=O)N[C@@H](C)c3cccc4ccccc34)C[C@H]2C)ccc1-c1cnc(C)o1,Activity,neuronal [1],56 nM
same,inhibition,neuronal [2],65%
same,microsomal CLint,[3],150 µL/min/mg
COc1cc(N2CCN(C(=O)Cn3cnc4cccc(C(F)(F)F)c43)CC2)ccc1-c1cnc(C)o1,Activity,neuronal [1],420 nM
same,inhibition,neuronal [2],46%
same,microsomal CLint,[3],7 µL/min/mg
COc1cc(N2CCN(C(=O)CN3CCc4ccccc43)CC2)ccc1-c1cnc(C)o1,Activity,neuronal [1],290 nM
same,inhibition,neuronal [2],52%
same,microsomal CLint,[3],160 µL/min/mg
COc1cc(N2CCN(C(=O)N[C@@H](C)c3cccc4ccccc34)C[C@@H]2C)ccc1-c1cnc(C)o1,Activity,neuronal [1],21 nM
same,inhibition,neuronal [2],64%
same,microsomal CLint,[3],150 µL/min/mg
COc1cc(N2CCN(C(=O)NCc3cccc4ccccc34)CC2)ccc1-c1cnc(C)o1,Activity,neuronal [1],50 nM
same,inhibition,neuronal [2],59%
same,microsomal CLint,[3],160 µL/min/mg
COc1cc(N2CCN(C(=O)Cn3cnc4c(C(F)(F)F)cccc43)CC2)ccc1-c1cnc(C)o1,Activity,neuronal [1],110 nM
same,inhibition,neuronal [2],53%
same,microsomal CLint,[3],12 µL/min/mg
COc1cc(N2CCN(C(=O)N[C@@H](C)c3cccc4ccccc34)CC2)ccc1-c1cnc(C)o1,Activity,neuronal [1],34 nM
same,inhibition,neuronal [2],67%
same,microsomal CLint,[3],130 µL/min/mg
COc1cc(N2CCN(C(=O)N[C@@H](C)c3cccc4ccccc34)CC2)ccc1-n1cnc(C)n1,Activity,neuronal [1],170 nM
same,inhibition,neuronal [2],68%
same,microsomal CLint,[3],110 µL/min/mg
COc1cc(N2CCN(C(=O)Cn3cnc4cc(C(F)(F)F)ccc43)C[C@@H]2C)ccc1-c1cnc(C)o1,Activity,neuronal [1],21 nM
same,inhibition,neuronal [2],60%
same,microsomal CLint,[3],67 µL/min/mg
same,inhibition,[4],inactive
same,inhibition,[5],Dose-dependent effect
same,inhibition,IMR-32,inactive
same,Vd,[6],0.36 L/kg
same,Cmax,[7],773 ng/mL
same,AUC,Mus musculus [8],3930 ng·h/mL
same,MRT,[9],3.26 h
same,F,Mus musculus [10],46%
same,inhibition in vivo at 100 mg/kg,Brain [11],41%
same,% of control at 100 mg/kg,Brain [12],105%
same,inhibition in vivo at 100 mg/kg,Plasma [13],36%
same,% of control at 100 mg/kg,Plasma [14],106%
COc1cc(N2CCN(C(=O)N[C@@H](C)c3cccc4ccccc34)CC2)ccc1-c1cnn(C)c1,Activity,neuronal [1],180 nM
same,inhibition,neuronal [2],63%
same,microsomal CLint,[3],150 µL/min/mg
COc1cc(C2CCN(C(=O)N[C@@H](C)c3cccc4ccccc34)CC2)ccc1-c1cnc(C)o1,Activity,neuronal [1],260 nM
same,inhibition,neuronal [2],61%
same,microsomal CLint,[3],170 µL/min/mg
COc1cc(N2CCN(C(=O)Cn3cnc4ccc(C(F)(F)F)cc43)C[C@@H]2C)ccc1-c1cnc(C)o1,Activity,neuronal [1],30 nM
same,inhibition,neuronal [2],46%
same,microsomal CLint,[3],50 µL/min/mg
COc1cc(N2CCN(C(=O)N[C@@H](C)c3cccc4ccccc34)CC2)ccc1-n1cnc(C)c1,Activity,neuronal [1],56 nM
same,inhibition,neuronal [2],57%
same,microsomal CLint,[3],150 µL/min/mg
same,inhibition in vivo at 100 mg/kg,Brain [11],4%
same,inhibition in vivo at 100 mg/kg,Plasma [13],16%
COc1cc(N2CCN(C(=O)CN3Cc4ccccc4C3)CC2)ccc1-c1cnc(C)o1,Activity,neuronal [1],620 nM
same,inhibition,neuronal [2],48%
same,microsomal CLint,[3],42 µL/min/mg
COc1cc(N2CCN(C(=O)Cn3ccc4ccccc43)CC2)ccc1-c1cnc(C)o1,Activity,neuronal [1],180 nM
same,inhibition,neuronal [2],50%
same,microsomal CLint,[3],140 µL/min/mg
COc1cc(N2CCN(C(=O)Cn3cnc4ccc(C(F)(F)F)cc43)CC2)ccc1-c1cnc(C)o1,Activity,neuronal [1],65 nM
same,inhibition,neuronal [2],50%
same,microsomal CLint,[3],23 µL/min/mg
